Data on 11 molecules can be found in patent US20250296959A1, “B7-H3 TARGETING PEPTIDES AND CONSTRUCTS THEREOF” (Mariana Oncology Inc., priority 2024, published 2025).

Starred links: 1 amine or outer side, 2 acyl side, 3 side chain; linkers in the order of their positions; H or OH if unused. Positions of bridges follow the written chain, without caps; N, C: chain ends. Non-standard residues stand in square brackets, D forms with d. Residues, ends and D or L forms follow the SMILES beside them. *: point of attachment. X7 = O=C(O)CN1CCN(CC(=O)O)CCN(CC(=O)NCCOCCOCCOCCOCCOCCOCCOCCOCC(=O)*)CCN(CC(=O)O)CC1; Ala(piperidin-4-yl) = O=C([C@H](CC1CCN([*:3])CC1)N[*:1])[*:2]; DOTA = O=C(O)CN1CCN(CC(=O)O)CCN(CC(=O)*)CCN(CC(=O)O)CC1; Trp(5-Cl) = N[C@@H](Cc1c[nH]c2ccc(Cl)cc12)C(=O)O; Trp(5-F) = N[C@@H](Cc1c[nH]c2ccc(F)cc12)C(=O)O; Trp(7-aza) = N[C@@H](Cc1c[nH]c2ncccc12)C(=O)O; 1Nal = N[C@@H](Cc1cccc2ccccc12)C(=O)O; Ala(4-THP) = N[C@@H](CC1CCOCC1)C(=O)O; AEF = NCCOc1ccc(C[C@H](N)C(=O)O)cc1; Val(3-OH) = CC(C)(O)[C@H](N)C(=O)O; 4Pal = N[C@@H](Cc1ccncc1)C(=O)O; Cha = N[C@@H](CC1CCCCC1)C(=O)O; Gly(cPr) = N[C@H](C(=O)O)C1CC1; aThr = C[C@H](O)[C@H](N)C(=O)O; Tle = CC(C)(C)[C@H](N)C(=O)O; hLeu = CC(C)CC[C@H](N)C(=O)O; NMeS = CN[C@@H](CO)C(=O)O; Nle = CCCC[C@H](N)C(=O)O; CH2 = C([*:1])[*:2]

This assay has as its target T1, human 4lg B7-H3 (Homo sapiens, UniProt Q5ZPR3).
T1 sequence (Q5ZPR3 29-534): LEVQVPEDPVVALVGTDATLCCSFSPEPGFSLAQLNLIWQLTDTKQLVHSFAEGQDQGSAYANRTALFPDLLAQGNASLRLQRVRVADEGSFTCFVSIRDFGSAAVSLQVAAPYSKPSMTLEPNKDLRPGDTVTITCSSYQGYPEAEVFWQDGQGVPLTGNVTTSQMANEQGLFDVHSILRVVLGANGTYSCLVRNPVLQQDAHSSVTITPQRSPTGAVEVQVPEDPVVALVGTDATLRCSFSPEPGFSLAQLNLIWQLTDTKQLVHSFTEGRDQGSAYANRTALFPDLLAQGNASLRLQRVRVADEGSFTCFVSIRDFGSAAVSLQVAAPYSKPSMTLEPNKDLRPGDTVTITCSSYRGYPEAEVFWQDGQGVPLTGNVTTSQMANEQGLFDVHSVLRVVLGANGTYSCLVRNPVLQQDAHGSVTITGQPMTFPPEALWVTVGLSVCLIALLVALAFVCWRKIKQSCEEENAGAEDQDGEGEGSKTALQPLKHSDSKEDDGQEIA
Kind of assay: Affinity determination by surface plasmon resonance (SPR) to 4Ig B7-H3. To be noted: 4Ig B7-H3.

The mark [1] stands for this setting: SPR KD—25° C., 25° C. flow cell temperature.
Where [2] appears, read: SPR KD—37° C., 37° C. flow cell temperature.

Consider `CC(=O)N[C@@H](CCC(C)C)C(=O)N[C@@H](Cc1ccc(O)cc1)C(=O)N[C@H]1CSSC[C@@H](C(=O)N[C@@H](Cc2cccc3ccccc23)C(=O)N[C@@H](Cc2ccccc2)C(=O)N2CCC[C@H]2C(=O)N[C@H](CCCCNC(=O)COCCOCCOCCOCCOCCOCCOCCOCCNC(=O)CN2CCN(CC(=O)O)CCN(CC(=O)O)CCN(CC(=O)O)CC2)C(N)=O)NC(=O)[C@H](Cc2ccc(O)cc2)NC(=O)[C@H](C(C)C)NC(=O)[C@H](CC(=O)O)NC(=O)[C@H](CC2CCOCC2)NC(=O)[C@H](CCCCN)NC(=O)CNC(=O)[C@H](C(C)(C)C)NC1=O` [compound 280, Ac-hLeu-Y-C-Tbg-G-K-ThpA-D-V-Y-C-1Nal-F-Pro-dLys(PEG8-DOTA)-CONH2] (Ac-[hLeu]YC[Tle]GK[Ala(4-THP)]DVYC[1Nal]FP[dK](X7)-NH2; disulfide 3-11), for which the dissociation constant Kd under setting [1] was less than 1 nM. As to `CCCC[C@H](NC(C)=O)C(=O)N[C@@H](Cc1ccc(O)cc1)C(=O)N[C@H]1CSSC[C@@H](C(=O)N[C@@H](Cc2c[nH]c3ccccc23)C(=O)N[C@@H](Cc2ccccc2)C(=O)N[C@@H](CO)C(=O)N[C@H](CCCCNC(=O)CN2CCN(CC(=O)O)CCN(CC(=O)O)CCN(CC(=O)O)CC2)C(N)=O)NC(=O)[C@H](Cc2ccc(O)cc2)NC(=O)[C@H](C(C)C)NC(=O)[C@H](CC(=O)O)NC(=O)[C@H](Cc2ccc(O)cc2)NC(=O)[C@H](CCCCN)NC(=O)CNC(=O)[C@H](C(C)C)NC1=O` [compound 92, Ac-Nle-Y-C-V-G-K-Y-D-V-Y-C-W-F-Ser-dLys(DOTA)-CONH2] (Ac-[Nle]YCVGKYDVYCWFS[dK](DOTA)-NH2; disulfide 3-11), the equilibrium dissociation constant (Kd) under setting [1] lay within 1 to 10 nM.

Under setting [1], `CC(=O)N[C@@H](CCC(C)C)C(=O)N[C@@H](Cc1ccc(O)cc1)C(=O)N[C@H]1CSCSC[C@@H](C(=O)N[C@@H](Cc2cccc3ccccc23)C(=O)N[C@@H](Cc2ccccc2)C(=O)N2CCC[C@H]2C(N)=O)NC(=O)[C@H](Cc2ccc(O)cc2)NC(=O)[C@H](C(C)C)NC(=O)[C@H](CC(=O)O)NC(=O)[C@H](Cc2ccncc2)NC(=O)[C@H](CCCCNC(=O)CN2CCN(CC(=O)O)CCN(CC(=O)O)CCN(CC(=O)O)CC2)NC(=O)CNC(=O)[C@H](C(C)(C)C)NC1=O` [compound 330, Ac-hLeu-Y-C(CH2)-Tbg-G-Lys(DOTA)-4PyA-D-V-Y-C-1Nal-F-Pro-CONH2] (Ac-[hLeu]YC[Tle]GK(DOTA)[4Pal]DVYC[1Nal]FP-NH2; linker 3-11 via CH2) yielded a Kd of 100 to 300 nM. As for `CC(=O)N[C@@H](CCC(C)C)C(=O)N[C@@H](Cc1ccc(O)cc1)C(=O)N[C@H]1CSSC[C@@H](C(=O)N[C@@H](Cc2c[nH]c3ccc(F)cc23)C(=O)N[C@@H](Cc2ccccc2)C(=O)N2CCC[C@H]2C(=O)N[C@H](CCCCNC(=O)CN2CCN(CC(=O)O)CCN(CC(=O)O)CCN(CC(=O)O)CC2)C(=O)O)NC(=O)[C@H](Cc2ccc(O)cc2)NC(=O)[C@H](C(C)C)NC(=O)[C@H](CC(=O)O)NC(=O)[C@H](CC2CCOCC2)NC(=O)[C@H](CCCCN)NC(=O)CNC(=O)[C@H](C(C)(C)C)NC1=O` [compound 304, Ac-hLeu-Y-C-Tbg-G-K-ThpA-D-V-Y-C-5FW-F-Pro-dLys(DOTA)-COOH] (Ac-[hLeu]YC[Tle]GK[Ala(4-THP)]DVYC[Trp(5-F)]FP[dK](DOTA)-OH; disulfide 3-11), the Kd under setting [1] lay in the range of 1 to 10 nM.

`CC(=O)N[C@@H](CCC(C)C)C(=O)N[C@@H](Cc1ccc(O)cc1)C(=O)N[C@H]1CSSC[C@@H](C(=O)N[C@@H](Cc2c[nH]c3ccccc23)C(=O)N[C@@H](Cc2ccccc2)C(=O)N[C@H](C(=O)N[C@H](CCCCNC(=O)CN2CCN(CC(=O)O)CCN(CC(=O)O)CCN(CC(=O)O)CC2)C(N)=O)[C@@H](C)O)NC(=O)[C@H](Cc2ccc(O)cc2)NC(=O)[C@H](C(C)C)NC(=O)[C@H](CC(=O)O)NC(=O)[C@H](Cc2ccc(O)cc2)NC(=O)[C@H](CCCCN)NC(=O)CNC(=O)[C@H]([C@H](C)O)NC1=O` [compound 120, Ac-hLeu-Y-C-alloThr-G-K-Y-D-V-Y-C-W-F-Thr-dLys(DOTA)-CONH2] (Ac-[hLeu]YC[aThr]GKYDVYCWFT[dK](DOTA)-NH2; disulfide 3-11) yielded a Kd under setting [1] of 10 to 100 nM. `CC(=O)N[C@@H](CCC(C)C)C(=O)N[C@@H](Cc1ccc(O)cc1)C(=O)N[C@H]1CSSC[C@@H](C(=O)N[C@@H](Cc2c[nH]c3ccccc23)C(=O)N[C@@H](Cc2ccccc2)C(=O)N[C@H](C(=O)N[C@H](CCCCNC(=O)CN2CCN(CC(=O)O)CCN(CC(=O)O)CCN(CC(=O)O)CC2)C(N)=O)[C@@H](C)O)NC(=O)[C@H](Cc2ccc(O)cc2)NC(=O)[C@H](C2CC2)NC(=O)[C@H](CC(=O)O)NC(=O)[C@H](Cc2ccc(O)cc2)NC(=O)[C@H](CCCCN)NC(=O)CNC(=O)[C@H](C(C)C)NC1=O` [compound 123, Ac-hLeu-Y-C-V-G-K-Y-D-Cpg-Y-C-W-F-Thr-dLys(DOTA)-CONH2] (Ac-[hLeu]YCVGKYD[Gly(cPr)]YCWFT[dK](DOTA)-NH2; disulfide 3-11) yielded a Kd under setting [1] of 1 to 10 nM. On to `CC(=O)N[C@@H](CCC(C)C)C(=O)N[C@@H](Cc1ccc(O)cc1)C(=O)N[C@H]1CSSC[C@@H](C(=O)N[C@@H](Cc2c[nH]c3ccc(F)cc23)C(=O)N[C@@H](Cc2ccccc2)C(=O)N[C@H](C(N)=O)[C@@H](C)O)NC(=O)[C@H](Cc2ccc(O)cc2)NC(=O)[C@H](C(C)C)NC(=O)[C@H](CC(=O)O)NC(=O)[C@H](Cc2ccc(OCCNC(=O)CN3CCN(CC(=O)O)CCN(CC(=O)O)CCN(CC(=O)O)CC3)cc2)NC(=O)[C@H](CCCCN)NC(=O)CNC(=O)[C@H](C(C)C)NC1=O` [compound 295, Ac-hLeu-Y-C-V-G-K-AEF(DOTA)-D-V-Y-C-5FW-F-Thr-CONH2] (Ac-[hLeu]YCVGK[AEF](DOTA)DVYC[Trp(5-F)]FT-NH2; disulfide 3-11), for which the Kd was less than 1 nM under setting [1] and less than 1 nM under setting [2]. For the molecule `CCCC[C@H](NC(C)=O)C(=O)N[C@@H](Cc1ccc(O)cc1)C(=O)N[C@H]1CSSC[C@@H](C(=O)N[C@@H](Cc2c[nH]c3ncccc23)C(=O)N[C@@H](Cc2ccccc2)C(=O)N[C@H](C(=O)N[C@H](CCCCNC(=O)CN2CCN(CC(=O)O)CCN(CC(=O)O)CCN(CC(=O)O)CC2)C(N)=O)[C@@H](C)O)NC(=O)[C@H](Cc2ccc(O)cc2)NC(=O)[C@H](C(C)C)NC(=O)[C@H](CC(=O)O)NC(=O)[C@H](Cc2ccc(O)cc2)NC(=O)[C@H](CCCCN)NC(=O)CNC(=O)[C@H](C(C)C)NC1=O` [compound 134, Ac-Nle-Y-C-V-G-K-Y-D-V-Y-C-7NW-F-Thr-dLys(DOTA)-CONH2] (Ac-[Nle]YCVGKYDVYC[Trp(7-aza)]FT[dK](DOTA)-NH2; disulfide 3-11), the Kd under setting [1] fell in the range of 10 to 100 nM. As for `CC(=O)N[C@@H](CCC(C)C)C(=O)N[C@@H](Cc1ccc(O)cc1)C(=O)N[C@H]1CSSC[C@@H](C(=O)N[C@@H](Cc2c[nH]c3ccc(Cl)cc23)C(=O)N[C@@H](Cc2ccccc2)C(=O)N[C@H](C(=O)N[C@H](CCCCNC(=O)CN2CCN(CC(=O)O)CCN(CC(=O)O)CCN(CC(=O)O)CC2)C(=O)O)C(C)(C)O)NC(=O)[C@H](Cc2ccc(O)cc2)NC(=O)[C@H](C(C)C)NC(=O)[C@H](CC(=O)O)NC(=O)[C@H](CC2CCOCC2)NC(=O)[C@H](CC2CCNCC2)NC(=O)CNC(=O)[C@H](C(C)(C)C)NC1=O` [compound 457, Ac-hLeu-Y-C-Tbg-G-PipAla-ThpA-D-V-Y-C-5ClW-F-hydroxyVal-dLys(DOTA)-COOH] (Ac-[hLeu]YC[Tle]G[Ala(piperidin-4-yl)][Ala(4-THP)]DVYC[Trp(5-Cl)]F[Val(3-OH)][dK](DOTA)-OH; disulfide 3-11), the Kd under setting [2] is less than 1 nM. Take `CC[C@H](C)[C@@H]1NC(=O)[C@@H](NC(=O)[C@H](Cc2ccc(O)cc2)NC(=O)[C@H](CCC(C)C)NC(C)=O)CSSC[C@@H](C(=O)N[C@@H](Cc2c[nH]c3ccc(F)cc23)C(=O)N[C@@H](Cc2ccccc2)C(=O)N(C)[C@@H](CO)C(N)=O)NC(=O)[C@H](Cc2ccc(O)cc2)NC(=O)[C@H](C(C)C)NC(=O)[C@H](CC(=O)O)NC(=O)[C@H](CC2CCCCC2)NC(=O)[C@H](CCCCNC(=O)CN2CCN(CC(=O)O)CCN(CC(=O)O)CCN(CC(=O)O)CC2)NC(=O)CNC1=O` [compound 232, Ac-hLeu-Y-C-Ile-G-Lys(DOTA)-CHA-D-V-Y-C-5FW-F-NMeSer-CONH2] (Ac-[hLeu]YCIGK(DOTA)[Cha]DVYC[Trp(5-F)]F[NMeS]-NH2; disulfide 3-11): the Kd under setting [1] was in the range of 10 to 100 nM.

Under setting [1], `CC(=O)N[C@@H](CCC(C)C)C(=O)N[C@@H](Cc1ccc(O)cc1)C(=O)N[C@H]1CSSC[C@@H](C(=O)N[C@@H](Cc2c[nH]c3ccccc23)C(=O)N[C@@H](Cc2ccccc2)C(=O)N[C@H](C(=O)N[C@H](CCCCNC(=O)CN2CCN(CC(=O)O)CCN(CC(=O)O)CCN(CC(=O)O)CC2)C(N)=O)[C@@H](C)O)NC(=O)[C@H](Cc2ccc(O)cc2)NC(=O)[C@H](C(C)(C)O)NC(=O)[C@H](CC(=O)O)NC(=O)[C@H](Cc2ccc(O)cc2)NC(=O)[C@H](CCCCN)NC(=O)CNC(=O)[C@H](C(C)C)NC1=O` [compound 127, Ac-hLeu-Y-C-V-G-K-Y-D-hydroVal-Y-C-W-F-Thr-dLys(DOTA)-CONH2] (Ac-[hLeu]YCVGKYD[Val(3-OH)]YCWFT[dK](DOTA)-NH2; disulfide 3-11) displayed a Kd of 100 to 300 nM.
